Target: T1, Tyrosine-protein phosphatase non-receptor type 1 (Homo sapiens, UniProt P18031)
T1 sequence (P18031 whole entry): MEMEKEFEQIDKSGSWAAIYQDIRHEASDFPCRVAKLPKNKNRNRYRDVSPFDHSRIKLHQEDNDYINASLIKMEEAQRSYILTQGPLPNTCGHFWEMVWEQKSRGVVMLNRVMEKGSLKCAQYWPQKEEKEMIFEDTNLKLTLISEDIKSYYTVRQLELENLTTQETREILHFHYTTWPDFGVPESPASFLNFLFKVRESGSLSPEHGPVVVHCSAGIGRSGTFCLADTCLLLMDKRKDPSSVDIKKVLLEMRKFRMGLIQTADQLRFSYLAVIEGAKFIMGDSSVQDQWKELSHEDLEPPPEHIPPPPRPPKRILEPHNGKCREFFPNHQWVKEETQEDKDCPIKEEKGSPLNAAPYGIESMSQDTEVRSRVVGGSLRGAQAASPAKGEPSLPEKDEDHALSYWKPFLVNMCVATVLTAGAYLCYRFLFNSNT
Assay: Inhibition of human recombinant PTP1B using pNPP substrate at 37 degC measured after 30 mins

SMILES	IC50
C=CCc1cc(/C=C2\SC(=O)N(CC=C)C2=O)c(OC)cc1O	> 30 µM
COc1cc(OCc2ccccc2)c(Br)cc1/C=C1\SC(=O)NC1=O	7.6 µM
C=CCN1C(=O)S/C(=C\c2cc(Br)c(OCC=C(C)C)cc2OC)C1=O	17 µM
C=CCc1cc(/C=C2\SC(=O)N(Cc3ccccc3)C2=O)c(OC)cc1O	7.2 µM
C=CCN1C(=O)S/C(=C\c2cc(Br)c(OCCCC)cc2OC)C1=O	7.9 µM
C=CCc1cc(/C=C2\SC(=O)N(C(C)C)C2=O)c(OC)cc1OC1CCCCO1 (centres undefined)	> 30 µM
C=CCc1cc(/C=C2\SC(=O)N(C)C2=O)c(OC)cc1O	> 30 µM
COc1cc(O)c(Br)cc1/C=C1\SC(=O)NC1=O	11.3 µM
C=CCc1cc(/C=C2\SC(=O)N(CCCC)C2=O)c(OC)cc1OC1CCCCO1 (centres undefined)	20.6 µM
COc1cc(OCC=C(C)C)c(Br)cc1/C=C1\SC(=O)NC1=O	5.3 µM
COc1cc(OC)c(/C=C2\SC(=O)N(C)C2=O)cc1Br	22.3 µM
C=CCc1cc(/C=C2\SC(=O)N(Cc3ccccc3)C2=O)c(OC)cc1OC1CCCCO1 (centres undefined)	> 30 µM
C=CCc1cc(/C=C2\SC(=O)N(CCCC)C2=O)c(OC)cc1O	9.6 µM
CCCCOc1cc(OC)c(/C=C2\SC(=O)N(C)C2=O)cc1Br	12.1 µM
C=CCc1cc(/C=C2\SC(=O)N(C)C2=O)c(OC)cc1OC1CCCCO1 (centres undefined)	> 30 µM
COc1cc(OCC=C(C)C)c(Br)cc1/C=C1\SC(=O)N(C)C1=O	8.2 µM
CCCCOc1cc(OC)c(/C=C2\SC(=O)NC2=O)cc1Br	4.9 µM

SMILES	IC50
C=CCOc1cc(OC)c(/C=C2\SC(=O)NC2=O)cc1Br	8.1 µM
COc1cc(OCC=C(C)C)c(Br)cc1/C=C1\SC(=O)N(CC=C(C)C)C1=O	10 µM
CCCCOc1cc(OC)c(/C=C2\SC(=O)N(CCCC)C2=O)cc1Br	> 30 µM
C=CCc1cc(/C=C2\SC(=O)NC2=O)c(OC)cc1O	29.3 µM
C=CCc1cc(/C=C2\SC(=O)N(CC=C(C)C)C2=O)c(OC)cc1O	12 µM
COc1cc(OC)c(/C=C2\SC(=O)NC2=O)cc1Br	14.2 µM
C=CCc1cc(/C=C2\SC(=O)N(C(C)C)C2=O)c(OC)cc1O	6.4 µM
COc1cc(O)ccc1/C=C1\SC(=O)NC1=O	29.8 µM
C=CCc1cc(/C=C2\SC(=O)N(CC=C)C2=O)c(OC)cc1OC1CCCCO1 (centres undefined)	> 30 µM
CCCCOc1cc(OC)c(/C=C2\SC(=O)N(C(C)C)C2=O)cc1Br	9.7 µM
COc1cc(OCC=C(C)C)c(Br)cc1/C=C1\SC(=O)N(C(C)C)C1=O	4.6 µM
C=CCc1cc(/C=C2\SC(=O)N(CC=C(C)C)C2=O)c(OC)cc1OC1CCCCO1 (centres undefined)	22.7 µM
CCCCOc1cc(OC)c(/C=C2\SC(=O)N(Cc3ccccc3)C2=O)cc1Br	6.6 µM
COc1cc(OCC=C(C)C)c(Br)cc1/C=C1\SC(=O)N(Cc2ccccc2)C1=O	10.3 µM
COc1cc(OCc2ccccc2)c(Br)cc1/C=C1\SC(=O)N(C)C1=O	8.1 µM
C=CCc1cc(/C=C2\SC(=O)NC2=O)c(OC)cc1OC1CCCCO1 (centres undefined)	12.2 µM
CCCCN1C(=O)S/C(=C\c2cc(Br)c(OCC=C(C)C)cc2OC)C1=O	12.3 µM
